Assay results taken from patent US20250268887A1, “THERAPEUTIC USES OF BRADYKININ B2-RECEPTOR ANTAGONISTS” (Pharvaris GmbH, priority 2022, published 2025).

Experiment: Elimination half-life
Conditions: human, in vivo

- half-life: ~4 h
Structure (SMILES): [2H][C@@](C)(NC(=O)COC(F)F)c1cc(F)cc(Cl)c1COc1cccc2c(-c3ncnn3C)cc(C)nc12 [PHA-022121, (S)-N-(1-deutero-1-(3-chloro-5-fluoro-2-((2-methyl-4-(1-methyl-1H-1,2,4-triazol-5-yl)quinolin-8-yloxy)methyl)phenyl)ethyl)-2-(difluoromethoxy)acetamide]
